Measured values from publication PMC3859608, “C-Terminus of the B-Chain of Relaxin-3 Is Important for Receptor Activity” (PLoS ONE, 2013).
“Also recorded” adds a separate entry of the source.

Assays:
RXFP1 = details: cited from earlier work
Text: (§1) It is a neuropeptide that is primarily expressed in the brain with the highest level detected in the nucleus incertus (NI) of the mouse, [8], rat, macaque and human. Neurons from the NI project to many regions of the brain where its distribution overlaps w ...

RXFP3 [1] = target: T1, RXFP3 (Homo sapiens, UniProt Q9NSD7); details: cited from earlier work
T1 construct: expressed in transfected cells
T1 sequence (Q9NSD7 1-469): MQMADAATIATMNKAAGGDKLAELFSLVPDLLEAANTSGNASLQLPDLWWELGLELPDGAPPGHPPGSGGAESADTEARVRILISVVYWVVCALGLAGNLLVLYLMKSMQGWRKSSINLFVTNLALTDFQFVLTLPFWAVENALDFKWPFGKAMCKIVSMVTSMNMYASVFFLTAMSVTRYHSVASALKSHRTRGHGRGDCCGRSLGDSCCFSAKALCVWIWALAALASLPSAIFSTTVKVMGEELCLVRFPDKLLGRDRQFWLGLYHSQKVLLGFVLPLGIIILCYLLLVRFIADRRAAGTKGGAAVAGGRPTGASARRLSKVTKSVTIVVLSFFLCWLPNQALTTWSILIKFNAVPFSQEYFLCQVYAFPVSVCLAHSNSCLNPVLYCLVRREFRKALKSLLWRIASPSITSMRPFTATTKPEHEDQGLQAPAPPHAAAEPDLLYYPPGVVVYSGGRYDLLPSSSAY
Text: as §1

RXFP4 [2] = target: T2, RXFP4 (Homo sapiens, UniProt Q8TDU9); details: sentence cites ref 7; cited from earlier work
T2 construct: expressed in transfected cells
Text: as §1

RXFP3 [3] = target: T1, RXFP3; details: in presence of orthosteric agonist; H3 amide or H3 acid; cited from earlier work
Text: In this endeavour, a small molecule, 135PAM1, has recently been discovered by Alvarez-Jaimes et al. They reported that it was an allosteric modulator of RXFP3 that worked in the presence of an orthosteric agonist, H3 relaxin.

RXFP4 [4] = target: T2, RXFP4; details: both A and B chain C-termini amidated vs acid; cited from earlier work
Text: Relaxin-3 is closely related to insulin-like peptide 5 (INSL5) as they both belong to the same branch in the phylogenetic tree of the relaxin family. In addition, the native receptors of relaxin-3 and INSL5, RXFP3 and RXFP4 respectively, belong to the same class of G-protein coupled receptors. On the basis of such close relationship between ligands (relaxin-3 and INSL5) and receptors (RXFP3 and RXFP4), it is most likely that relaxin-3 interacts with RXFP3 in a similar way to INSL5 interaction with RXFP4. Therefore, we tested all four H3 relaxin analogues on RXFP4. As expected, the H3 acid pept ... || The bioactivity of many polypeptide hormones often requires a form of post-translational modification of their precursors. An example of a widespread modification is C-terminal amidation which often leads to an increase in bioactivity of peptides [32]–[35]. In some cases, amidation of the C-terminus has been reported to have detrimental effect on the activity of peptides, [36]. […] In the case of relaxin family peptides, H2 relaxin and INSL3, both p ...

RXFP4 [5] = target: T2, RXFP4; assay: Competition binding, Eu-labelled mouse INSL5, CHO-K1 cells expressing RXFP4; details: CHO-K1 cells stably expressing RXFP4; Eu-labelled mouse INSL5 2.5 nM; one site competition fit; mean ± SEM, n = 3, triplicate determinations; vs H3 acid: * H3 amide, ** p<0.01 H3 A-acid; read-out: RXFP4 Eu-INSL5 pKi (converted)
Protocol: (§2) The receptor binding affinity of the peptides was measured using CHO-K1 cells stably expressing RXFP3 and RXFP4. The competition binding assays were carried out as previously described, [27]. Briefly, a single concentration of Eu-labelled I5/R3 (0.5 nM) or Eu-labelled mouse INSL5 (2.5 nM) were used in presence of increasing concentration of peptides. The data were analyzed using GraphPad PRISM 5 (GraphPad Inc., San Diego, USA). The europium binding curves were fitted to a one site competition curve and the pKi values were expressed as the mean ± SEM of at least three independent experiments with triplicate determinations within each assay.
(§3) Figure 3 Receptor binding affinity (pKi) and cAMP activity (pEC-50) curves of H3 relaxin and its variants at RXFP4. A) Competition binding curves of H3 relaxin variants at RXFP4 using a single concentration of Eu-INSL5 (2.5 nM) in the presence of increasing concentrations of the H3 relaxin peptides. B) RXFP4 activation curves of H3 relaxin variants measured in a cAMP activity assays in the presence of 1 µM forskolin. The data were expressed as mean ± SEM from at least three independent experiments.

RXFP4 [6] = target: T2, RXFP4; assay: cAMP activity (inhibition of forskolin-induced cAMP), CHO-K1 cells expressing RXFP4; assay type: cell-based; details: CHO-K1 RXFP4, pCRE-β-galactosidase reporter; forskolin 5 µM (method) / 1 µM (Fig. 3 legend); peptide 0.01 nM – 1 µM; mean ± SEM, n = 3, triplicate determinations; vs H3 acid: * H3 amide, ** p<0.01 H3 A-acid; read-out: RXFP4 cAMP pEC50 (converted)
Protocol: (§4) The ability of the peptides to activate the receptors RXFP3/RXFP4 was assessed by measuring their influence on cAMP signalling in CHO-K1 cells stably expressing RXFP3 or RXFP4 transfected with a pCRE-β-galactosidase reporter gene construct as previously described. A single concentration of forskolin was used to stimulate cAMP signalling in cells expressing RXFP3 (1 µM) and RXFP4 (5 µM) and peptide induced inhibition of cAMP signalling was measured by adding increasing concentrations of the peptides (0.01 nM – 1 µM). The ability of the peptides to inhibit forskolin-induced cAMP response (pEC50) was measured and expressed as mean ± SEM from three independent experiments with triplicate determinations within each assay. The inhibition curves were fitted to a single-site sigmoidal dose-response curve with variable slope using Graphpad PRISM 5.
as §3

RXFP3 [7] = target: T1, RXFP3; assay: Competition binding, Eu-labelled I5/R3, CHO-K1 cells expressing RXFP3; details: CHO-K1 cells stably expressing RXFP3; Eu-I5/R3 0.5 nM; one site competition fit; mean ± SEM, n in parentheses in cell (3; H3 amide 4), triplicate determinations; ** p<0.01 vs H3 acid (H3 amide, H3 A-acid); read-out: RXFP3 Eu-H3/I5 pKi (converted)
Protocol: as §2
(§5) Figure 2 Receptor binding affinity (pKi) and cAMP activity (pEC-50) curves of H3 relaxin and its variants at RXFP3. A) Competition binding curves of H3 relaxin variants using a single concentration of Eu-I5/R3 (0.5 nM) in the presence of increasing concentrations of the H3 relaxin peptides. B) RXFP3 activation curves of H3 relaxin variants measured in a cAMP activity assay in the presence of 5 µM forskolin. The data were expressed as mean ± SEM. from at least three independent experiments.

RXFP3 [8] = target: T1, RXFP3; assay: cAMP activity (inhibition of forskolin-induced cAMP), CHO-K1 cells expressing RXFP3; assay type: cell-based; details: CHO-K1 RXFP3, pCRE-β-galactosidase reporter; forskolin 1 µM (method) / 5 µM (Fig. 2 legend); peptide 0.01 nM – 1 µM; mean ± SEM, n = 3, triplicate determinations; ** p<0.01 vs H3 acid (H3 amide, H3 A-acid); read-out: RXFP3 cAMP pEC50 (converted)
Protocol: as §4, §5

T2 sequence (Q8TDU9 whole entry, species assumed): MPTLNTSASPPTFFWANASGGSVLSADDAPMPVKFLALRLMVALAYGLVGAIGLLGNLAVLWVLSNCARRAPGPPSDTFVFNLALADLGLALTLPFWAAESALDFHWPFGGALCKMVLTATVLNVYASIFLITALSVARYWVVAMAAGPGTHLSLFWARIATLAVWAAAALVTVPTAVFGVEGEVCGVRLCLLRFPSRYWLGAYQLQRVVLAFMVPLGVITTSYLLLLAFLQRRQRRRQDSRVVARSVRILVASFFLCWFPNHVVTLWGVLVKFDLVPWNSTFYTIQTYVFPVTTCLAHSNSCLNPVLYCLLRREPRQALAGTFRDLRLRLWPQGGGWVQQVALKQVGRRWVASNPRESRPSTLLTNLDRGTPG

H3 relaxin: neuropeptide with two chains (A and B) connected by three disulfide bonds
interaction with RXFP1 (RXFP1): with high affinity | binding and activation of RXFP3 (RXFP3 [1]): binds and activates its cognate receptor | interaction with RXFP4 (RXFP4 [2]): with high affinity

COc1ccc2[nH]cc(CCN(Cc3ccc(Cl)c(Cl)c3)C(=O)Nc3cc(C(F)(F)F)cc(C(F)(F)F)c3)c2c1 [135PAM1]
allosteric activity of 135PAM1, dependence on H3 relaxin C-terminus (RXFP3 [3]): active only when used with the non-native amidated form of H3 relaxin; also recorded: unable to act in the presence of the native form (acid) of H3 relaxin

INSL5: insulin-like peptide 5; native ligand of RXFP4 (Insulin-like peptide INSL5 B … KESVRLCGLEYIRTVIYICASSRW; Insulin-like peptide INSL5 A … QDLQTLCCTDGCSMTDLSALC; UniProt Q9Y5Q6 23-46; Q9Y5Q6 115-135, looked up)
C-terminus requirement for RXFP4 activity of INSL5 (RXFP4 [4]): need to be an acid for full RXFP4 activity; also recorded: C-termini were required to be free (acid) for high RXFP4 activity

CC[C@H](C)[C@@H]1NC(=O)[C@H](Cc2ccccc2)NC(=O)[C@H](CCC(=O)O)NC(=O)[C@H](CCCNC(=N)N)NC(=O)CNC(=O)[C@@H](NC(=O)[C@H](CC(C)C)NC(=O)[C@H](CCCNC(=N)N)NC(=O)[C@@H](NC(=O)CNC(=O)[C@H](Cc2ccc(O)cc2)NC(=O)[C@@H]2CCCN2C(=O)[C@H](C)NC(=O)[C@H](C)NC(=O)[C@@H](N)CCCNC(=N)N)C(C)C)CSSC[C@@H]2NC(=O)[C@@H](NC(=O)[C@H](CO)NC(=O)[C@H](CO)NC(=O)[C@H](CO)NC(=O)[C@H](CC(C)C)NC(=O)CNC(=O)[C@H](C)NC(=O)[C@H](CC(C)C)NC(=O)[C@@H](NC(=O)[C@@H](N)CC(=O)O)C(C)C)CSSC[C@H](NC(=O)CNC(=O)[C@H](Cc3c[nH]c4ccccc34)NC(=O)[C@H](CCCCN)NC2=O)C(=O)N[C@@H](CO)C(=O)N[C@@H](CCCCN)C(=O)N[C@@H](CO)C(=O)N[C@@H](CCC(=O)O)C(=O)N[C@@H]([C@@H](C)CC)C(=O)N[C@@H](CO)C(=O)N[C@@H](CO)C(=O)N[C@@H](CC(C)C)C(=O)N[C@H](C(N)=O)CSSC[C@@H](C(=O)NCC(=O)NCC(=O)N[C@@H](CO)C(=O)N[C@@H](CCCNC(=N)N)C(=O)N[C@@H](Cc2c[nH]c3ccccc23)C(=O)O)NC(=O)[C@H]([C@@H](C)O)NC(=O)[C@H](Cc2ccccc2)NC(=O)[C@H]([C@@H](C)CC)NC(=O)[C@H](C(C)C)NC(=O)[C@H](C)NC(=O)[C@H](CCCNC(=N)N)NC1=O [H3 B-acid]
Ki (RXFP4 [5]): 19.1 nM | EC50 (RXFP4 [6]): 1.32 nM | Ki (RXFP3 [7]): 24 nM | EC50 (RXFP3 [8]): 0.955 nM
